Our source for the ED85 and EC80 values is ChEMBL document CHEMBL3045538, “Amino acid chemistry in crop protection” (2010).

In general, EC80 refers to the point of the concentration-response curve where the effect stands at 80%. Low values mean an effect from little substance, high ones a need for much substance.

Assay type in all cases: functional
The test system of test [1] is Digitaria sanguinalis. The test can be described thus: Post-emergence herbicidal activity against Digitaria sanguinalis (hairy crabgrass).
Test [2] has as its system Echinochloa crus-galli. The test can be described thus: Post-emergence herbicidal activity against Echinochloa crus-galli (barnyard grass).
Test [3] concerns Ipomoea purpurea. Briefly: Post-emergence herbicidal activity against Ipomoea purpurea (common morning-glory).
Test [4] has as its system Setaria viridis. The test can be described thus: Post-emergence herbicidal activity against Setaria viridis (green foxtail).
For test [5], the system named is Abutilon theophrasti. The test can be described thus: Post-emergence herbicidal activity against Abutilon theophrasti (velvetleaf).
Test [6] concerns Plasmopara viticola. The test can be described thus: Fungicidal activity against Plasmopara viticola.
Test [7] relates to Phytophthora infestans. Briefly: Fungicidal activity against Phytophthora infestans.

Values after ≈ are worked out from the molar mass of the structure shown. Bounds are passed on as bounds.

As to `COC(=O)[C@H](C)n1nnc2ccc(Oc3c(F)cc(C(F)(F)F)cc3Cl)cc21`, the ED85 in test [1] is reported as 125 g/ha; in test [2], 63 g/ha; in test [3], less than 32 g/ha; in test [4] it was 125 g/ha; in test [5] it was less than 32 g/ha.
For the compound `CCC#CCOc1ccc(CCNC(=O)[C@@H](NS(C)(=O)=O)[C@@H](C)O)cc1OC`, the values for the EC80 in test [6] and in test [7] were 109 µg/mL (≈ 264 µM) and 148 µg/mL (≈ 359 µM), respectively.
Taken in the same sequence, the figures for `CCC#CCOc1ccc(CCNC(=O)[C@H](CCC(=O)O)NS(C)(=O)=O)cc1OC` were more than 200 µg/mL and more than 200 µg/mL.
With `CCC#CCOc1ccc(CCNC(=O)[C@H](CCSC)NS(C)(=O)=O)cc1OC`, the EC80 in test [6] and in test [7] was more than 200 µg/mL in each case.
`Fc1cc(C(F)(F)F)cc(Cl)c1Oc1ccc2nn[nH]c2c1`: the ED85 was 250 g/ha in test [1]; more than 500 g/ha in test [2]; less than 32 g/ha in test [3]; more than 500 g/ha in test [4]; 250 g/ha in test [5].
Take `CCn1nnc2ccc(Oc3c(F)cc(C(F)(F)F)cc3Cl)cc21`: the ED85 in test [1] is more than 500 g/ha; in test [2], more than 500 g/ha; in test [3], less than 32 g/ha; in test [4], more than 500 g/ha; in test [5], less than 32 g/ha.
As for `C#CCn1nnc2ccc(Oc3c(F)cc(C(F)(F)F)cc3Cl)cc21`, the ED85 in test [1] is on record as 500 g/ha; in test [2], 250 g/ha; in test [3] it was less than 32 g/ha; in test [4], 63 g/ha; in test [5], 250 g/ha.
Regarding `COC(=O)Cn1nnc2ccc(Oc3c(F)cc(C(F)(F)F)cc3Cl)cc21`, the ED85 in test [1] is more than 8 g/ha; in test [2] it was 4 g/ha; in test [3] it was 0.5 g/ha; in test [4], 2 g/ha; in test [5], more than 8 g/ha.
In the case of `CC(C(=O)O)n1nnc2ccc(Oc3c(F)cc(C(F)(F)F)cc3Cl)cc21` (centres undefined), the ED85 in test [1] is given as 8 g/ha; in test [2], 4 g/ha; in test [3], less than 0.5 g/ha; in test [4], 1 g/ha; in test [5] it was 1 g/ha.
In the case of `CC(C(N)=O)n1nnc2ccc(Oc3c(F)cc(C(F)(F)F)cc3Cl)cc21` (centres undefined), the ED85 in test [1] is given as 63 g/ha; in test [2] it was 125 g/ha; in test [3] it was less than 32 g/ha; in test [4], 63 g/ha; in test [5] it was less than 32 g/ha.
Take `COC(=O)CCn1nnc2ccc(Oc3c(F)cc(C(F)(F)F)cc3Cl)cc21`: the ED85 in test [1] is less than 32 g/ha; in test [2], 125 g/ha; in test [3], less than 32 g/ha; in test [4], 250 g/ha; in test [5] it was less than 32 g/ha.
As for `CCC#CCOc1ccc(CCNC(=O)CNS(C)(=O)=O)cc1OC`, the EC80 was more than 200 µg/mL in test [6] and 148 µg/mL (≈ 402 µM) in test [7].
As for `CCC#CCOc1ccc(CCNC(=O)[C@H](C)NS(C)(=O)=O)cc1OC`, the EC80 in test [6] and in test [7] was more than 200 µg/mL in each case.
Consider `CCC#CCOc1ccc(CCNC(=O)[C@H](CCC)NS(C)(=O)=O)cc1OC`, for which the concentration for an effect of 80% (EC80) turned out to be 20 µg/mL (≈ 48.7 µM) in test [6] and 60 µg/mL (≈ 146 µM) in test [7].
Turning to `CCC#CCOc1ccc(CCNC(=O)[C@@H](NS(C)(=O)=O)C(C)C)cc1OC`, the EC80 is 2 µg/mL (≈ 4.87 µM) in test [6] and 8 µg/mL (≈ 19.5 µM) in test [7].
Taken in the same sequence, the figures for `CCC#CCOc1ccc(CCNC(=O)[C@@H](NS(C)(=O)=O)[C@@H](C)CC)cc1OC` were 2 µg/mL (≈ 4.71 µM) and 3 µg/mL (≈ 7.07 µM).
On to `CCC#CCOc1ccc(CCNC(=O)[C@H](CC(C)C)NS(C)(=O)=O)cc1OC`, for which the EC80 in test [6] came to 18 µg/mL (≈ 42.4 µM); in test [7], 12 µg/mL (≈ 28.3 µM).
Take `CCC#CCOc1ccc(CCNC(=O)C(NS(C)(=O)=O)C(CC)CC)cc1OC` (racemic): the EC80 in test [6] and in test [7] was 16 µg/mL (≈ 36.5 µM) throughout.
For `CCC#CCOc1ccc(CCNC(=O)C(NS(C)(=O)=O)c2ccc(Cl)cc2)cc1OC` (racemic), the values for the 80% effect concentration (EC80) in test [6] and in test [7] were 15 µg/mL (≈ 31.3 µM) and 20 µg/mL (≈ 41.8 µM), respectively.
The corresponding values for `C=CCC(NS(C)(=O)=O)C(=O)NCCc1ccc(OCC#CCC)c(OC)c1` (racemic) are 49 µg/mL (≈ 120 µM) and 9 µg/mL (≈ 22 µM).
